Assay results from PubChem BioAssay AID220 (DTP/NCI, 2004).
Where “and” joins values, the source holds several entries; their conditions need not be identical. Equal entries are not always repeated. Results filed as inconclusive are left out.

Test system: CD8F1 mice, subcutaneous mammary adenocarcinoma, T/C%
Assay: NCI In Vivo Anticancer Drug Screen. Data for tumor model Mammary Adenocarcinoma CD8F1 (subcutaneous) in CD8F1
Settings: higher = larger tumour
Method in brief: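 Mice carrying transplanted tumors received test compound, and survival or tumor size was recorded. Each value is the treated-group measurement divided by the corresponding measurement in vehicle-dosed controls.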

`COc1cc(NCc2ccc3nc(N)nc(N)c3c2C)cc(OC)c1OC` was tested, and the T/C (endpoint: median tumor weight (est.), dose: 1.88 mg/kg/injection, schedule: Q07DX005 (ip), vehicle: sodium bicarbonate) was 82 % of control, the T/C (endpoint: median tumor weight (est.), dose: 3.75 mg/kg/injection, schedule: Q07DX005 (ip), vehicle: sodium bicarbonate) was 63 % of control and 82 % of control and the T/C (endpoint: median tumor weight (est.), dose: 7.5 mg/kg/injection, schedule: Q07DX005 (ip), vehicle: sodium bicarbonate) was 114 % of control. For the same compound, the T/C (endpoint: median tumor weight (est.), dose: 35.0 mg/kg/injection, schedule: Q04DX007 (ip), vehicle: water) was 100 % of control, the T/C (endpoint: median tumor weight (est.), dose: 35.0 mg/kg/injection, schedule: Q07DX005 (ip), vehicle: water) was 87 % of control and the T/C (endpoint: median tumor weight (est.), dose: 41.5 mg/kg/injection, schedule: Q04DX007 (ip), vehicle: water) was 59 % of control. For the same compound, the T/C (endpoint: median tumor weight (est.), dose: 44.0 mg/kg/injection, schedule: Q07DX005 (ip), vehicle: water) was 44 % of control, the T/C (endpoint: median tumor weight (est.), dose: 46.0 mg/kg/injection, schedule: Q07DX005 (ip), vehicle: water) was 26 % of control and the T/C (endpoint: median tumor weight (est.), dose: 47.4 mg/kg/injection, schedule: Q04DX007 (ip), vehicle: water) was 29 % of control. The T/C (endpoint: median tumor weight (est.), dose: 53.0 mg/kg/injection, schedule: Q04DX007 (ip), vehicle: water) was 66 % of control, the T/C (endpoint: median tumor weight (est.), dose: 53.0 mg/kg/injection, schedule: Q07DX005 (ip), vehicle: saline) was 5 % of control and the T/C (endpoint: median tumor weight (est.), dose: 53.0 mg/kg/injection, schedule: Q07DX005 (ip), vehicle: suspension in saline) was 67 % of control. For the same compound, the T/C (endpoint: median tumor weight (est.), dose: 62.2 mg/kg/injection, schedule: Q04DX007 (ip), vehicle: water) was 29 % of control, the T/C (endpoint: median tumor weight (est.), dose: 66.0 mg/kg/injection, schedule: Q07DX005 (ip), vehicle: water) was 111 % of control and the T/C (endpoint: median tumor weight (est.), dose: 70.0 mg/kg/injection, schedule: Q07DX005 (ip), vehicle: water) was 44 % of control. The T/C (endpoint: median tumor weight (est.), dose: 71.1 mg/kg/injection, schedule: Q04DX007 (ip), vehicle: water) was 45 % of control, the T/C (endpoint: median tumor weight (est.), dose: 80.0 mg/kg/injection, schedule: Q04DX007 (ip), vehicle: water) was 121 % of control and the T/C (endpoint: median tumor weight (est.), dose: 80.0 mg/kg/injection, schedule: Q07DX005 (ip), vehicle: suspension in saline) was 23 % of control. For the same compound, the T/C (endpoint: median tumor weight (est.), dose: 99.0 mg/kg/injection, schedule: Q07DX005 (ip), vehicle: water) was 24 % of control, the T/C (endpoint: median tumor weight (est.), dose: 105.0 mg/kg/injection, schedule: Q07DX005 (ip), vehicle: water) was 41 % of control and the T/C (endpoint: median tumor weight (est.), dose: 120.0 mg/kg/injection, schedule: Q04DX007 (ip), vehicle: water) was 8 % of control. The T/C (endpoint: median tumor weight (est.), dose: 120.0 mg/kg/injection, schedule: Q07DX005 (ip), vehicle: sodium bicarbonate) was 37 % of control.
In the case of `CN1C(=O)CC2(CCN(CCCC(=O)c3ccc(F)cc3)CC2)C1=O`, the T/C (endpoint: median tumor weight (est.), dose: 6.25 mg/kg/injection, schedule: Q07DX005 (ip), vehicle: saline) is reported as 112 % of control, the T/C (endpoint: median tumor weight (est.), dose: 6.25 mg/kg/injection, schedule: Q07DX005 (ip), vehicle: suspension in saline) is reported as 52 % of control and the T/C (endpoint: median tumor weight (est.), dose: 12.5 mg/kg/injection, schedule: Q07DX005 (ip), vehicle: saline) is reported as 62 % of control. For the same compound, the T/C (endpoint: median tumor weight (est.), dose: 12.5 mg/kg/injection, schedule: Q07DX005 (ip), vehicle: suspension in saline) was 108 % of control, the T/C (endpoint: median tumor weight (est.), dose: 25.0 mg/kg/injection, schedule: Q07DX005 (ip), vehicle: saline) was 170 % of control and the T/C (endpoint: median tumor weight (est.), dose: 50.0 mg/kg/injection, schedule: Q07DX005 (ip), vehicle: saline) was 117 % of control. The T/C (endpoint: median tumor weight (est.), dose: 50.0 mg/kg/injection, schedule: Q07DX005 (ip), vehicle: suspension in saline) was 258 % of control and the T/C (endpoint: median tumor weight (est.), dose: 100.0 mg/kg/injection, schedule: Q07DX005 (ip), vehicle: suspension in saline) was 122 % of control.
For `CNC(=O)/C=C/C1=CN2C(=O)c3ccc(C)c(O)c3NC(OC)C2C1` (centres undefined), the T/C (endpoint: median tumor weight change, dose: 0.03 mg/kg/injection, schedule: Q01DX001 (ip), vehicle: suspension in saline) was 70 % of control, the T/C (endpoint: median tumor weight change, dose: 0.07 mg/kg/injection, schedule: Q01DX001 (ip), vehicle: suspension in saline) was 51 % of control and the T/C (endpoint: median tumor weight change, dose: 0.31 mg/kg/injection, schedule: Q01DX001 (ip), vehicle: saline) was 150 % of control. The T/C (endpoint: median tumor weight change, dose: 0.62 mg/kg/injection, schedule: Q01DX001 (ip), vehicle: saline) was 83 % of control.
With `NCCCC(N)(C(=O)O)C(F)F` (centres undefined) the T/C (endpoint: median tumor weight change, dose: 125.0 mg/kg/injection, schedule: Q01DX001 (ip), vehicle: distilled water + alcohol) was 29 % of control, the T/C (endpoint: median tumor weight change, dose: 250.0 mg/kg/injection, schedule: Q01DX001 (ip), vehicle: distilled water + alcohol) was 51 % of control and the T/C (endpoint: median tumor weight change, dose: 500.0 mg/kg/injection, schedule: Q01DX001 (ip), vehicle: distilled water + alcohol) was 64 % of control. For the same compound, the T/C (endpoint: median tumor weight change, dose: 1000.0 mg/kg/injection, schedule: Q01DX001 (ip), vehicle: distilled water + alcohol) was 36 % of control and the T/C (endpoint: median tumor weight change, dose: 2000.0 mg/kg/injection, schedule: Q01DX001 (ip), vehicle: distilled water + alcohol) was 72 % of control.
